{
  "source": "patent US12173018B2",
  "about": "“Penicillin-binding protein inhibitors” (priority 2018, dated 2024)",
  "key": {"E. coli PBP3": {"target": "E. coli PBP3 (Escherichia coli (strain K12), UniProt P0AD68)", "test": "E. coli PBP3 Bocillin-FL fluorescence polarization competition binding assay", "outline": "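This was a fluorescence polarization competition with fluorescent penicillin Bocillin-FL (0.1 μM final), read at 490/520 nm for 60 min immediately after its addition. The buffer was Hepes pH 8.0 with 300 mM NaCl and 5% glycerol, containing 1.5 μM PBP and test inhibitor up to 1000 μM. Potency is expressed as EC50 for reducing probe binding.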"}, "E. coli PBP2": {"target": "E. coli PBP2 (Escherichia coli (strain K12), UniProt P0AD65)", "test": "E. coli PBP2 Bocillin-FL fluorescence polarization competition binding assay", "outline": "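Fluorescence polarization competition with Bocillin-FL (0.1 μM final) and purified PBP2 (1.5 μM final) in 50 mM Hepes pH 8.0, 300 mM NaCl, 5% glycerol. FP (ex 490/em 520 nm) read for 90 min after Bocillin-FL addition; EC50 is the inhibitor concentration reducing Bocillin-FL binding by half.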"}, "E. coli PBP4": {"target": "E. coli PBP4 (Escherichia coli (strain K12), UniProt P24228)", "test": "E. coli PBP4 Bocillin-FL fluorescence polarization competition binding assay", "source_text": "To determine the ability of boronic acid-based test PBP inhibitors to bind Penicillin Binding Proteins (PBPs), Bocillin-FL (fluorescently-labeled penicillin V; ThermoFisher Scientific) was used in a fluorescence polarization (FP) competition binding assay to assess inhibitor binding to PBP2, PBP3 or PBP4 from Escherichia coli. PBPs were cloned and purified as described previously (King, D. T, et al., ACS Infectious Diseases 2015, 1, 175-184). To establish assay conditions for competition binding, an enzyme titration/saturation binding experiment was initially performed. Bocillin-FL was prepared at 0.2 μM in a buffer comprised of 50 mM Hepes (pH 8.0), 300 mM NaCl and 5% (v/v) glycerol. Saturation binding was performed by mixing 40 μl of PBP solutions ranging in concentrations from 0-12 μM with 40 μl of the 0.2 μM Bocillin-FL solution, in individual wells of a black 384-well microplate. FP was measured immediately upon mixing (Excitation, 490 nm; Emission, 520 nm; g-factor, 0.96), using a Cytation3 (BioTek) microplate reader and measured continuously for up to 120 minutes. […] Assays (80 μl final volume) were performed with PBPs at a final concentration of 1.5 μM, Bocillin-FL at 0.1 μM and beta-lactam concentrations that ranged from 0-1000 μM. […] Bocillin-FL was added and the FP immediately measured for 60 minutes (90 minutes for PBP2). The beta-lactam potency was reported as the concentration of beta-lactam required to reduce binding of Bocillin-FL by […] (EC50). […] Binding assays for boronic acid PBP inhibitors were performed in an identical fashion."}, "E. coli PBP1a": {"target": "E. coli PBP1a (Escherichia coli (strain K12), UniProt P02918)", "test": "Radioligand competition binding assay with 14C-labeled boronic acid probe, PBP1a", "source_text": "To determine the ability of boronic acid-based test PBP inhibitors to bind Penicillin Binding Proteins (PBPs), a radio-labelled boronic acid PBP inhibitor\n[drawing 751] was used in competition binding assays to determine boronic acid PBP inhibitor binding to PBP1a or PBP1b from Escherichia coli. PBP1a and PBP1b were purified as described previously (Bertsche, U.; et al., J. Biol. Chem. 2005, 280 (45), 38096-38101; Born, P.; et al., J. Biol. Chem. 2006. 281 (37), 26985-26993). To establish assay conditions for competition binding, an enzyme titration/saturation binding experiment was performed. Saturation binding was performed in a buffer comprised of 20 mM Tris (pH 7.5), 500 mM NaCl and 0.1% (v/v) TritonX-100, with PBP1a/PBP1b at a final concentration of 0.1 μM and Compound A at final concentrations ranging from 0-100 μM. Mixtures were incubated for 60 minutes, then applied to Zeba Spin Desalting columns or plates (ThermoFisher Scientific) and centrifuged at 1000-1500×g for 2 minutes. The flow through, containing PBP bound with Compound A, was recovered and 100 μL mixed with 5 mL of UltimaGold liquid scintillation cocktail (Perkin Elmer), and the radioactivity counted using a Beckman Coulter LS 6500 Multipurpose scintillation counter. PBP binding of Compound A approached saturation at 20 μM of ^14C-labeled probe. The competition binding assay was validated using the beta-lactam ampicillin, with Compound A at a final concentration of 20 μM, PBP1a/PBP1b at a final concentration of 0.1 μM. PBP1a/PBP1b was incubated with ampicillin in a 96-well microplate for 60 minutes, then Compound A was added and the mixtures incubated for an additional 60 minutes. The mixtures were then applied to Zeba Spin desalting plates and centrifuged at 1000×g for 2 minutes. The flow through was recovered and 100 μl mixed with 5 ml of UltimaGold liquid scintillation cocktail and the radioactivity counted. […] Binding assays with boronic acid PBP inhibitors were performed in an identical fashion. The potency of boronic acid PBP inhibitors was reported as the EC50 value."}, "[1]": {"system": "engineered strain of Escherichia coli harboring CTX-M15", "test": "microbe, parasite or virus in culture", "type": "cell-based", "settings": "Escherichia coli, read-out: Microbiological Activity (MIC in mg/L), E. coli DH5α/pLBII-CTX-M15, engineered strain producing CTX-M15"}, "[2]": {"system": "E. coli DH5α empty pLBII vector control strain", "test": "microbe, parasite or virus in culture", "type": "cell-based, Escherichia coli", "settings": "Escherichia coli, read-out: Microbiological Activity (MIC in mg/L), E. coli DH5α/pLBII", "outline": "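Broth microdilution in cation-supplemented Mueller-Hinton broth used a starting inoculum of 5×10^5 CFU/mL of E. coli DH5α carrying empty pLBII vector. Plates were incubated 16–20 h at 37 °C. MIC was read visually as the lowest concentration showing no growth.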"}, "E. coli ATCC 25922": {"system": "E. coli ATCC 25922", "test": "Broth microdilution MIC, E. coli ATCC 25922", "type": "cell-based", "settings": "Escherichia coli, ATCC25922; E. coli ATCC 25922, broth microdilution; read-out: MIC E. coli 25922", "outline": "(§1)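 CLSI broth microdilution in cation-supplemented Mueller-Hinton broth; 2-fold compound dilutions inoculated at 5×10^5 CFU/mL from a 3-5 h log-phase culture. Plates incubated 16-20 hours at 37° C; MIC read visually as lowest concentration with no growth.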"}, "E. coli AG100": {"system": "E. coli AG100", "test": "Broth microdilution MIC, E. coli AG100 (wild-type parent)", "type": "cell-based", "settings": "Escherichia coli; wild-type parent E. coli AG100, broth microdilution; read-out: MIC E. coli AG100", "outline": "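Broth microdilution in cation-supplemented Mueller-Hinton broth, 2-fold serial compound dilutions, inoculum 5×10^5 CFU/mL from 3-5 h log culture.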"}, "E. coli 901C": {"system": "E. coli 901C", "test": "microbe, parasite or virus in culture", "type": "cell-based", "settings": "Escherichia coli; hyper-permeable E. coli 901C, broth microdilution; read-out: MIC E. coli 901C", "outline": "as §1"}, "E. coli AG100A": {"system": "E. coli AG100A", "test": "microbe, parasite or virus in culture", "type": "cell-based", "settings": "Escherichia coli, read-out: MIC E. coli AG100A", "outline": "as §1"}, "K. pneumoniae UMM": {"system": "K. pneumoniae UMM", "test": "microbe, parasite or virus in culture", "type": "cell-based", "settings": "Klebsiella pneumoniae; K. pneumoniae UMM producing SHV-5 and KPC-2; read-out: MIC K. pneumoniae UMM", "outline": "as §1"}},
  "note": "Where two headings read alike, the source gives them in different places.",
  "data": [
    {"smiles": "CCN1CCN(C(=O)NC(C(=O)N[C@H]2Cc3cc(C)cc(C(=O)O)c3OB2O)c2csc(N)n2)C(=O)C1=O", "note": "(stereo partly drawn) [Example 20, (3R)-3-(2-(2-aminothiazol-4-yl)-2-(4-ethyl-2,3-dioxopiperazine-1-carboxamido)acetamido)-2-hydroxy-6-methyl-3,4-dihydro-2H-benzo[e][1,2]oxaborinine-8-carboxylic acid]", "values": [
      {"measurement": "EC50", "setting": "E. coli PBP3", "result": "30 to 500", "unit": "µM"},
      {"measurement": "EC50", "setting": "E. coli PBP2; fluorescence polarization competition binding with Bocillin-FL, read-out: E. coli K12 PBP2 Potency (EC50)", "result": "> 500", "unit": "µM"},
      {"measurement": "EC50", "setting": "E. coli PBP4; fluorescence polarization competition binding with Bocillin-FL, read-out: E. coli K12 PBP4 Potency (EC50)", "result": "> 500", "unit": "µM"},
      {"measurement": "EC50", "setting": "E. coli PBP1a", "result": "< 10", "unit": "µM"},
      {"measurement": "MIC", "setting": "[1]", "result": "32 to 64", "unit": "mg/L"},
      {"measurement": "MIC", "setting": "[2]", "result": "32 to 64", "unit": "mg/L"}
    ]},
    {"smiles": "CCN1CCN(C(=O)N[C@H](Cc2ccc(O)c(O)c2)C(=O)N[C@H]2Cc3cccc(C(=O)O)c3OB2O)C(=O)C1=O", "note": "[Example 40, (R)-3-((R)-3-(3,4-dihydroxyphenyl)-2-(4-ethyl-2,3-dioxopiperazine-1-carboxamido)propanamido)-2-hydroxy-3,4-dihydro-2H-benzo[e][1,2]oxaborinine-8-carboxylic acid]", "values": [
      {"measurement": "EC50", "setting": "E. coli PBP3", "result": "30 to 500", "unit": "µM"},
      {"measurement": "EC50", "setting": "E. coli PBP4", "result": "30 to 500", "unit": "µM"}
    ]},
    {"smiles": "CCN1CCN(C(=O)NC(C(=O)N[C@H]2Cc3cccc(C(=O)O)c3OB2O)c2ccc(O)cn2)C(=O)C1=O", "note": "(stereo partly drawn) [Example 89, (3R)-3-(2-(4-ethyl-2,3-dioxopiperazine-1-carboxamido)-2-(5-hydroxypyridin-2-yl)acetamido)-2-hydroxy-3,4-dihydro-2H-benzo[e][1,2]oxaborinine-8-carboxylic acid]", "values": [
      {"measurement": "EC50", "setting": "E. coli PBP3; fluorescence polarization competition binding with Bocillin-FL, read-out: E. coli K12 PBP3 Potency", "result": "< 30", "unit": "µM"},
      {"measurement": "EC50", "setting": "E. coli PBP2", "result": "30 to 500", "unit": "µM"},
      {"measurement": "EC50", "setting": "E. coli PBP4", "result": "30 to 500", "unit": "µM"},
      {"measurement": "MIC", "setting": "E. coli ATCC 25922", "result": "8 to 16", "unit": "µg/mL"},
      {"measurement": "MIC", "setting": "E. coli AG100", "result": "32 to 64", "unit": "µg/mL"},
      {"measurement": "MIC", "setting": "E. coli 901C", "result": "0.5 to 1", "unit": "µg/mL"},
      {"measurement": "MIC", "setting": "E. coli AG100A", "result": "2 to 4", "unit": "µg/mL"},
      {"measurement": "MIC", "setting": "K. pneumoniae UMM", "result": "8 to 16", "unit": "µg/mL"},
      {"measurement": "MIC", "setting": "[1]", "result": "8 to 16", "unit": "mg/L"}
    ]},
    {"smiles": "C[C@@H](O)[C@H]1C(=O)N2C(C(=O)O)=C(S[C@@H]3CN[C@H](C(=O)N(C)C)C3)[C@H](C)[C@H]12", "note": "[meropenem, reference compound]", "values": [
      {"measurement": "EC50", "setting": "E. coli PBP4; assay validation with beta-lactams, PBP 1.5 μM, Bocillin-FL 0.1 μM, read-out: EC50 with PBP4 (reduction of Bocillin-FL binding)", "result": "< 2", "unit": "µM"}
    ]}
  ]
}
